From US12714681B2, “Packaged, sealed container system for stable storage of an oxygen sensitive pharmaceutical formulation” (Baxter International Inc., priority 2020, dated 2026)

What was measured:
various receptors = conditions: R-isomer compared with S-isomer; cited from earlier work
[1] = Exploration of parameters: stability of norepinephrine formulations in 0.9% sodium chloride pre and post terminal sterilization; format: physicochemical
Method: Formulation parameters, such as antioxidant concentration and solution pH, were evaluated. Lab-scale batches were prepared and filled into containers through cut corners (resealed). Containers were subsequently vacuum sealed into overpouches. All formulations were prepared in 0.9% sodium chloride. Oxygen levels were controlled by preparing samples within a glove box under N2 atmosphere. Replicates were tested pre and post sterilization. Runs were evaluated by O2 content (head space and solution), pH, concentration of analyte and related compounds, enantiomeric purity, amount of antioxidant, and “visual inspection.”
Nineteen formulations were prepared in accordance with the table above.

[2] = cited from earlier work

Compound	affinity to various receptors / pharmaceutical activity (various receptors)	rate of epimerization to the S-isomer ([1]; higher pH values)	rate of norepinephrine oxidation ([1]; lower pH values)	solubility in acidic solutions ([2]; acidic solutions)	solubility in alcohols and ethers ([2]; alcohols and ethers)	solubility in water ([2]; water)
NC[C@H](O)c1ccc(O)c(O)c1 (single isomer, unassigned) [R-isomer]	higher affinity					
NC[C@@H](O)c1ccc(O)c(O)c1 (single isomer, unassigned) [S-isomer]	negligible pharmaceutical activity					
NC[C@H](O)c1ccc(O)c(O)c1 [norepinephrine]		decreased the rate of epimerization to the S-isomer	decreased the rate of norepinephrine oxidation	readily soluble	slightly soluble	sparingly soluble
